Measurements published in patent US20100055712A1, “Oligopeptides for treatment of osteoporosis and other bone diseases and methods therefor” (Washington University, priority 2008, published 2010).
*1 amine or outer side, *2 acyl side, *3 side chain or, on linkers, in order; H or OH if unused. Where a SMILES comes first, the peptide text is derived from it. [ ]: non-standard residue; d: D form. The star is where a group is joined. X1 = CC(N[*:1])C(=O)C(F)(F)C(=O)[*:2]; Boc = CC(C)(C)OC(=O)*

Test system: LRP1 expression in WT MEF cells
Assay: LRP1 expression in WT MEF cells after treatment with γ-secretase inhibitors (western blot)
Type: cell-based, mouse
Settings: FIGS. 5I and 5J
Source text: The requirement of γ-secretase activity in LRP1 regulation was further verified by two alternative approaches.

Row | Compound | LRP1 expression
1 | CCC(C)C(NC(=O)C(NC(=O)OC(C)(C)C)C(C)C)C(=O)NC(C)C(=O)C(F)(F)C(=O)NC(C(=O)NC(C(=O)OC)C(C)CC)C(C)C (stereo not drawn) [DFK, DFK167] (Boc-VI[X1]VI-OMe; configuration not given here) | enhanced LRP1 expression
2 | C[C@H](NC(=O)Cc1cc(F)cc(F)c1)C(=O)N[C@H](C(=O)OC(C)(C)C)c1ccccc1 [DAPT] | enhanced LRP1 expression
3 | CC(C)C[C@H](NC(=O)[C@H](Cc1ccccc1)C[C@@H](O)[C@H](Cc1ccccc1)NC(=O)OC(C)(C)C)C(=O)N[C@@H](Cc1ccccc1)C(N)=O [L685,458] | enhanced LRP1 expression
